# Experimental data published in patent US11806342B2, “Diiodohydroxyquinoline for the treatment of clostridium difficile infection” (Purdue Research Foundation, priority 2019, dated 2023).
# What was measured:
# Type in all cases: cell-based, Clostridium difficile
# [1] = tested on: C. difficile ATCC BAA-1870; experiment: Time kill kinetics assay; settings: C. difficile ATCC BAA-1870, 5×MIC, 37° C.
# Procedure: Time kill kinetics assay. In order to examine the killing kinetics of DIHQ, a time kill kinetics assay was performed against Clostridium difficile ATCC BAA 1870 and C. difficile NR-49277 as described previously. […] Aliquots were collected from each treatment after 0, 4, 6, 8, 12, and 24 hours of incubation at 37° C. and subsequently serially diluted and plated for viable CFU/mL determination.
# [2] = tested on: C. difficile P19; experiment: MIC and MBC, broth microdilution; settings: Clostridioides difficile, C. difficile P19
# Procedure: (§1) Antibacterial activity of Diiodohydroxyquinoline against a wide panel of Clostridium difficile strains. […] MIC50 and MIC90 are the minimum concentration of each agent that inhibited growth of 50% and 90% of the tested isolates, respectively. The minimum bactericidal concentration (MBC) of these drugs was tested by plating 5 μL from wells with no growth onto BHIS agar plates. The MBC was categorized as the lowest concentration that reduced bacterial growth by 99.9% MIC50 and MIC90 are the minimum concentration of each agent that inhibited the growth of 50% and 90% of the tested isolates, respectively. The minimum bactericidal concentration (MBC) of these drugs was tested by plating 5 μL from wells with no growth onto BHIS agar plates. The MBC was categorized as the lowest concentration that reduced bacterial growth by 99.9% [29-31].
# [3] = tested on: C. difficile P3; experiment: MIC and MBC, broth microdilution; settings: Clostridioides difficile, C. difficile P3
# Procedure: as §1
# [4] = tested on: C. difficile I10; experiment: MIC and MBC, broth microdilution; settings: Clostridioides difficile, C. difficile I10
# Procedure: as §1
# [5] = tested on: C. difficile P15; experiment: MIC and MBC, broth microdilution; settings: Clostridioides difficile, C. difficile P15
# Procedure: as §1
# [6] = tested on: C. difficile P5; experiment: MIC and MBC, broth microdilution; settings: Clostridioides difficile, C. difficile P5
# Procedure: as §1
# [7] = tested on: C. difficile P30; experiment: MIC and MBC, broth microdilution; settings: Clostridioides difficile, C. difficile P30
# Procedure: as §1
# [8] = tested on: C. difficile NR-49285; experiment: MIC and MBC, broth microdilution; settings: Clostridioides difficile, NR49285, C. difficile NR-49285
# Procedure: as §1
# [9] = tested on: C. difficile HM-745; experiment: MIC and MBC, broth microdilution; settings: Clostridioides difficile, HM745, C. difficile HM-745
# Procedure: as §1
# [10] = tested on: C. difficile P6; experiment: MIC and MBC, broth microdilution; settings: Clostridioides difficile, C. difficile P6
# Procedure: as §1
# [11] = tested on: C. difficile NR-49278; experiment: MIC and MBC, broth microdilution; settings: Clostridioides difficile, NR49278, C. difficile NR-49278
# Procedure: as §1
# [12] = tested on: C. difficile ATCC 1801; experiment: MIC and MBC, broth microdilution; settings: Clostridioides difficile, ATCC1801, C. difficile ATCC 1801
# Procedure: as §1
# [13] = tested on: C. difficile I11; experiment: MIC and MBC, broth microdilution; settings: Clostridioides difficile, C. difficile I11
# Procedure: as §1
# [14] = tested on: C. difficile I13; experiment: MIC and MBC, broth microdilution; settings: Clostridioides difficile, C. difficile I13
# Procedure: as §1
# [15] = tested on: C. difficile I9; experiment: MIC and MBC, broth microdilution; settings: Clostridioides difficile, C. difficile I9
# Procedure: as §1
# [16] = tested on: C. difficile ATCC 43255; experiment: MIC and MBC, broth microdilution; settings: Clostridioides difficile, ATCC43255, C. difficile ATCC 43255
# Procedure: as §1
# [17] = tested on: C. difficile I6; experiment: MIC and MBC, broth microdilution; settings: Clostridioides difficile, C. difficile I6
# Procedure: as §1
# [18] = tested on: C. difficile NR-49288; experiment: MIC and MBC, broth microdilution; settings: Clostridioides difficile, NR49288, C. difficile NR-49288
# Procedure: as §1
# [19] = tested on: C. difficile P20; experiment: MIC and MBC, broth microdilution; settings: Clostridioides difficile, C. difficile P20
# Procedure: as §1
# [20] = tested on: C. difficile P19; experiment: Checkerboard assay, DIHQ with metronidazole or vancomycin
# Procedure: (§2) Interactions between diiodohydroxyquinoline and the anticlostridial drugs (metronidazole and vancomycin) against Clostridium difficile clinical isolates. […] The fractional inhibitory concentration index (ΣFIC) was calculated for each interaction. Interactions where the ΣFIC index was ≤0.5 were categorized as synergistic (SYN).
# [21] = tested on: C. difficile P30; experiment: as above
# Procedure: as §2
# [22] = tested on: C. difficile ATCC 9689; experiment: as above
# Procedure: as §2
# [23] = tested on: C. difficile P11; experiment: as above
# Procedure: as §2
# [24] = tested on: C. difficile ATCC 1801; experiment: as above
# Procedure: as §2
# [25] = tested on: C. difficile I6; experiment: as above
# Procedure: as §2
# [26] = DIHQ with metronidazole, C. difficile P19
# [27] = DIHQ with vancomycin, C. difficile P19
# [28] = DIHQ with metronidazole, C. difficile P30
# [29] = DIHQ with vancomycin, C. difficile P30
# [30] = DIHQ with metronidazole, C. difficile ATCC 9689
# [31] = DIHQ with vancomycin, C. difficile ATCC 9689
# [32] = DIHQ with metronidazole, C. difficile P11
# [33] = DIHQ with vancomycin, C. difficile P11
# [34] = DIHQ with metronidazole, C. difficile ATCC 1801
# [35] = DIHQ with vancomycin, C. difficile ATCC 1801
# [36] = DIHQ with metronidazole, C. difficile I6
# [37] = DIHQ with vancomycin, C. difficile I6
structure (smiles),measurement,setting,value
"Oc1c(I)cc(I)c2cccnc12 [DIHQ, 5,7-diiodoquinolin-8-ol]",time required to generate a 3-log10 reduction in CFU/mL,[1],six
same,"time to complete eradication of the bacteria (below the detection limit, 100 CFU/mL)",[1],≤ 24 h
same,MBC,[2]; read-out: MBC,1 µg/mL
same,MIC,[2]; read-out: MIC,0.5 µg/mL
same,MBC,[3]; read-out: MBC,2 µg/mL
same,MIC,[3]; read-out: MIC,2 µg/mL
same,MBC,[4]; read-out: MBC,1 µg/mL
same,MIC,[4]; read-out: MIC,1 µg/mL
same,MBC,[5]; read-out: MBC,1 µg/mL
same,MIC,[5]; read-out: MIC,1 µg/mL
same,MBC,[6]; read-out: MBC,4 µg/mL
same,MIC,[6]; read-out: MIC,2 µg/mL
same,MBC,[7]; read-out: MBC,0.5 µg/mL
same,MIC,[7]; read-out: MIC,0.5 µg/mL
same,MBC,[8]; read-out: MBC,1 µg/mL
same,MIC,[8]; read-out: MIC,1 µg/mL
same,MBC,[9]; read-out: MBC,1 µg/mL
same,MIC,[9]; read-out: MIC,1 µg/mL
same,MBC,[10]; read-out: MBC,0.5 µg/mL
same,MIC,[10]; read-out: MIC,0.5 µg/mL
same,MBC,[11]; read-out: MBC,0.5 µg/mL
same,MIC,[11]; read-out: MIC,0.25 µg/mL
same,MBC,[12]; read-out: MBC,4 µg/mL
same,MIC,[12]; read-out: MIC,2 µg/mL
same,MBC,[13]; read-out: MBC,1 µg/mL
same,MIC,[13]; read-out: MIC,1 µg/mL
same,MBC,[14]; read-out: MBC,2 µg/mL
same,MIC,[14]; read-out: MIC,2 µg/mL
same,MBC,[15]; read-out: MBC,0.06 µg/mL
same,MIC,[15]; read-out: MIC,0.06 µg/mL
same,MBC,[16]; read-out: MBC,0.5 µg/mL
same,MIC,[16]; read-out: MIC,0.5 µg/mL
same,MBC,[17]; read-out: MBC,0.5 µg/mL
same,MIC,[17]; read-out: MIC,0.5 µg/mL
same,MBC,[18]; read-out: MBC,0.5 µg/mL
same,MIC,[18]; read-out: MIC,0.25 µg/mL
same,MBC,[19]; read-out: MBC,1 µg/mL
same,MIC,[19]; read-out: MIC,1 µg/mL
same,MIC of DIHQ combined with metronidazole,[20]; C. difficile P19,0.06 µg/mL
same,MIC of DIHQ combined with vancomycin,[20]; C. difficile P19,0.125 µg/mL
same,MIC alone,"[20]; C. difficile P19, Table 4",0.5 µg/mL
same,MIC,"[20]; Clostridioides difficile, C. difficile P19, Table 3, read-out: MIC alone",0.5 µg/mL
same,Interpretation,[20]; [26],SYN (ΣFIC index ≤0.5 is considered synergistic (SYN))
same,ΣFIC Index,[20]; [26],0.24
same,Interpretation,[20]; [27],SYN (ΣFIC index ≤0.5 is considered synergistic (SYN))
same,ΣFIC Index,[20]; [27],0.375
same,MIC of DIHQ combined with metronidazole,[21]; C. difficile P30,0.06 µg/mL
same,MIC of DIHQ combined with vancomycin,[21]; C. difficile P30,0.125 µg/mL
same,MIC alone,"[21]; C. difficile P30, Table 4",1 µg/mL
same,MIC,"[21]; Clostridioides difficile, C. difficile P30, Table 3, read-out: MIC alone",1 µg/mL
same,Interpretation,[21]; [28],SYN (ΣFIC index ≤0.5 is considered synergistic (SYN))
same,ΣFIC Index,[21]; [28],0.185
same,Interpretation,[21]; [29],SYN (ΣFIC index ≤0.5 is considered synergistic (SYN))
same,ΣFIC Index,[21]; [29],0.25
same,MIC of DIHQ combined with metronidazole,[22]; C. difficile ATCC 9689,0.06 µg/mL
same,MIC of DIHQ combined with vancomycin,[22]; C. difficile ATCC 9689,0.06 µg/mL
same,MIC alone,"[22]; C. difficile ATCC 9689, Table 4",0.125 µg/mL
same,MIC,"[22]; Clostridioides difficile, ATCC9689, C. difficile ATCC 9689, Table 3, read-out: MIC alone",0.125 µg/mL
same,Interpretation,[22]; [30],ADD (ΣFIC index >0.5 − 1.25 is considered additive (ADD))
same,ΣFIC Index,[22]; [30],0.62
same,Interpretation,[22]; [31],ADD (ΣFIC index >0.5 − 1.25 is considered additive (ADD))
same,ΣFIC Index,[22]; [31],0.625
same,MIC of DIHQ combined with metronidazole,[23]; C. difficile P11,0.125 µg/mL
same,MIC of DIHQ combined with vancomycin,[23]; C. difficile P11,0.5 µg/mL
same,MIC alone,"[23]; C. difficile P11, Table 4",0.5 µg/mL
same,MIC,"[23]; Clostridioides difficile, C. difficile P11, Table 3, read-out: MIC alone",0.5 µg/mL
same,Interpretation,[23]; [32],SYN (ΣFIC index ≤0.5 is considered synergistic (SYN))
same,ΣFIC Index,[23]; [32],0.37
same,Interpretation,[23]; [33],ADD (ΣFIC index >0.5 − 1.25 is considered additive (ADD))
same,ΣFIC Index,[23]; [33],1.125
same,MIC of DIHQ combined with metronidazole,[24]; C. difficile ATCC 1801,1 µg/mL
same,MIC of DIHQ combined with vancomycin,[24]; C. difficile ATCC 1801,2 µg/mL
same,MIC alone,"[24]; C. difficile ATCC 1801, Table 4",4 µg/mL
same,MIC,"[24]; Clostridioides difficile, ATCC1801, C. difficile ATCC 1801, Table 3, read-out: MIC alone",4 µg/mL
same,Interpretation,[24]; [34],SYN (ΣFIC index ≤0.5 is considered synergistic (SYN))
same,ΣFIC Index,[24]; [34],0.37
same,Interpretation,[24]; [35],ADD (ΣFIC index >0.5 − 1.25 is considered additive (ADD))
same,ΣFIC Index,[24]; [35],0.625
same,MIC of DIHQ combined with metronidazole,[25]; C. difficile I6,0.125 µg/mL
same,MIC of DIHQ combined with vancomycin,[25]; C. difficile I6,0.5 µg/mL
same,MIC alone,"[25]; C. difficile I6, Table 4",2 µg/mL
same,MIC,"[25]; Clostridioides difficile, C. difficile I6, Table 3, read-out: MIC alone",2 µg/mL
same,Interpretation,[25]; [36],SYN (ΣFIC index ≤0.5 is considered synergistic (SYN))
same,ΣFIC Index,[25]; [36],0.188
same,Interpretation,[25]; [37],SYN (ΣFIC index ≤0.5 is considered synergistic (SYN))
same,ΣFIC Index,[25]; [37],0.375
